Laboratory results published in patent US20250288547A1, “TREATMENT OF DISEASES CAUSED BY RNA VIRUSES” (Amerimmune LLC, priority 2021, published 2025).

Key:
caspase-1 = target: T1, caspase-1 (Homo sapiens, UniProt P29466); assay: Ex vivo active caspase-1 in CD4 T cells, whole blood incubated with caspase inhibitors with or without nigericin (Example 9); format: cell-based; conditions: inhibitor incubation, 24 hrs later with or without nigericin; for T-helper cell caspase-1 expression: COVID-19 whole blood samples
T1 sequence (P29466 120-297 limits assumed): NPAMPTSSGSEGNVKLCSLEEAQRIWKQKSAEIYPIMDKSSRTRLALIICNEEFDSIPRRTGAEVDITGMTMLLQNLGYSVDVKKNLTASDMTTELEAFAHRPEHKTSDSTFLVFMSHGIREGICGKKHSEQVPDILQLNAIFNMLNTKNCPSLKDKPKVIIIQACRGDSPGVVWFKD
T1 sequence (P29466 317-404 limits assumed): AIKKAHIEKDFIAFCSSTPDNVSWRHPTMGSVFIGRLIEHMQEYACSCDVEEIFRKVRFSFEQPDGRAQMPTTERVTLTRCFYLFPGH

[1] = in vivo; cited from earlier work
Caspase 1 = Caspase 1 (Homo sapiens, UniProt P29466); assay: Active caspase-1 FLICA flow cytometry, whole blood from COVID-19 (+) patients incubated with Emricasan (Example 7); format: cell-based; design: dose or concentration left out as unconfirmed; conditions: 17 hours (overnight) room temperature on a rocker, 3 samples from COVID-19 patients
Method: Whole blood from COVID-19 (+) patients was incubated either (A) without addition of Emricasan (Untreated) or (B) with Emricasan (Sigma Aldrich, MO, SML2227-5 MG), 1 μM final concentration for 3.5 hours at room temperature (Treated). Following incubation with or without Emricasan, PBMCs were purified using an Accuspin System—Histopaque 1077 (Sigma Aldrich, MO, A6929) as per the manufacturer's instructions. Purified Treated and Untreated PBMCs were incubated with nigericin (Immunochemistry Technologies, MN) as per the manufacturer's instructions for 2 hours. […] PMBCs were washed with cell wash buffer (Immunochemistry Technologies, MN) to remove unbound FLICA probes. Washed PBMCs were FACS-sorted using CD45 PE-CY7 [HI30], CD3 AF700 [UCHT1], CD4 PE [RPA-T4], CD45RO PerCP-EF710 [UCHL1], and Viability Dye 780 (Thermo Fisher Scientific, Carlsbad, CA) to identify viable CD3-cells as well as CD3+ cells and CD3+CD4+ T cells. Lymphocytes were identified using a standard gating schematic that incorporated gating of lymphocytes on a FSC/SSC plot and singlets on a FSC-A/FSC-H plot. Lymphocytes were further identified as CD45+ on a CD45/SSC plot and subsequent CD3−, CD3+, and CD3+CD4+ cells were identified on a CD45+CD3/CD4 plot.
In another experiment, whole blood was incubated with […] Emricasan for 17 hours (overnight between 5 PM to 10 AM) at room temperature on a rocker. […]

ACE-2 receptor = conditions: subsequent reports; cited from earlier work
[2] = target: T2, main protease of SARS-COV-2 (Severe acute respiratory syndrome coronavirus 2, UniProt P0DTD1); conditions: subsequent reports; cited from earlier work
T2 construct: the main protease of SARS-COV-2

caspase-3 = target: T3, caspase-3 (Homo sapiens, UniProt P42574); assay: Caspase-3 in red blood cells incubated with patient plasma (Example 9); format: cell-based
T3 construct: endogenous in cells; host or cells: human red blood cells incubated with patient plasma
T3 sequence (P42574 29-175 limits assumed): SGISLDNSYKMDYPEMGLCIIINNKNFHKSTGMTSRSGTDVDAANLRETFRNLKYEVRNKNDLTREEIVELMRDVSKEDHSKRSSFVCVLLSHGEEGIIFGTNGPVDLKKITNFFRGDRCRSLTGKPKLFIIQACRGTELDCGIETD
T3 sequence (P42574 176-277 limits assumed): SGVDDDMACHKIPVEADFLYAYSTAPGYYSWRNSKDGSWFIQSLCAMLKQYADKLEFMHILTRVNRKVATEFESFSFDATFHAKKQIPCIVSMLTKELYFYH

mild COVID-19 = assay: Phase 1 double-blinded placebo-controlled safety and tolerability study in symptomatic outpatient mild-COVID-19 patients (Example 10); format: in vivo, human
Method: A double-blinded, placebo-controlled randomized safety and tolerability study (1:1 active: placebo) was performed in a number symptomatic outpatient mild-COVID-19 patients receiving standard of care therapy. A total of 13 patients were enrolled at a single site in New York City. Treatment involved administering Emricasan (EMR) (or placebo) at 25 mg BID dosing for 14 days, with follow-up for an additional month. […] This study was thus designed to evaluate safety and tolerability, with the primary endpoint being the difference, if any, between treatment-related adverse events (AEs), including severe adverse events (SAEs), if any, in the active (EMR) and placebo groups through day 14. The pharmacokinetics (PK) of EMR has been extensively studied in earlier clinical trials. Accordingly, patients in this Phase 1 study were sampled at the end of the study to confirm that Emricasan pharmacokinetics was not altered in COVID-19 patients. Secondary endpoints included various clinical and laboratory measures and patient reported outcomes (PROs) using a COVID-19-related assessment tool.

[3] = system: red blood cell (RBC) layer in the PBMC layer (RBC aggregation); assay: “Red ring” (contaminating RBC layer in PBMC layer) in COVID-19 patient samples; format: cell-based, human; conditions: PBMCs from COVID-19 patient samples, 1 micromolar, room temperature, 17 hours
Source text: One of the observations made during the preparation of peripheral blood mononuclear cells (PBMC) for some of the experiments described herein was the presence of a contaminating red blood cell (RBC) layer in the PBMC layer, which was referred to as a “red ring”. This “red ring” was present in all COVID-19 patient samples, with no difference between critically ill patients and those who were only on supportive care outside the ICU setting (see FIG. 12A).
When PBMCs isolated from COVID-19 patient samples were incubated with Emricasan (1 micromolar) at room temperature for 17 hours, a decrease in the “red ring” was observed.

Q: With `CCO[C@@H]1OC(=O)C[C@@H]1NC(=O)[C@@H]1CCCN1C(=O)[C@@H](NC(=O)c1ccc(N)c(Cl)c1)C(C)(C)C` [VX765, Belnacasan] as the molecule, how does the “T-helper cell caspase-1 expression” value (caspase-1) read?
A: did not show a strong similar suppressive effect

Q: For `C[C@H](NC(=O)C(=O)Nc1ccccc1C(C)(C)C)C(=O)N[C@@H](CC(=O)O)C(=O)COc1c(F)c(F)cc(F)c1F` [Emricasan, (3S)-3-{[(2S)-2-{[2-(2-tert-butylanilino)-2-oxoacetyl]amino}propanoyl]amino}-4-oxo-5-(2,3,5,6-tetrafluorophenoxy) pentanoic acid], which “safety and tolerance profile” value [1] is on record?
A: excellent safety and tolerance profile

Q: And the “samples showing inhibition of nigericin-induced Caspase-1 activity” value (Caspase 1)?
A: ⅓

Q: What about the “T-helper cell caspase-1 expression” value (caspase-1) of the same molecule?
A: suppressed

Q: And the “T-helper cell caspase-1 upregulation” value (caspase-1; healthy subjects' whole blood)?
A: prevented its upregulation

Q: What about the “inhibition of ACE-2 receptor binding activity for SARS-COV-2” value (ACE-2 receptor) of the same molecule?
A: inhibit the binding activity

Q: And the “inhibition of main protease activity” value [2]?
A: may also inhibit

Q: And the “RBC caspase-3 up-regulation” value (caspase-3; healthy subjects' RBCs, COVID-19 plasma incubated samples)?
A: suppressed

Q: And the “RBC baseline caspase-3 expression levels” value (caspase-3; influenza-plasma incubated samples)?
A: did not change

Q: And the serious adverse events (mild COVID-19; 25 mg BID 14 days, mild COVID-19 outpatients)?
A: no reports of serious adverse events

Q: What about the safety and tolerability (mild COVID-19; 25 mg BID 14 days, during 2 weeks of dosing and at week 10 follow up, compared to placebo) of the same molecule?
A: safe and well tolerated

Q: And the “resolution of symptoms most commonly associated with mild COVID-19 (cough, headache, fatigue)” value (mild COVID-19; patients who completed treatment, at day 7, continued through Day 45)?
A: complete resolution

Q: What about the ““red ring” (contaminating RBC layer in PBMC layer)” value [3] of the same molecule?
A: decrease
